# Data as given in patent publication US7173063B1, “Topoisomerase poisons for the treatment of proliferative disorders” (Fred Hutchinson Cancer Research Center, priority 2000, dated 2007).
# Biological target: T1, Topo II (Saccharomyces cerevisiae, UniProt P06786)
# T1 construct: Strains are wild-type (wt) or constitutively overexpressing Topo II (TOP2oe); endogenous in cells; host or cells: S. cerevisiae A364a background, chromosomal TOP2 with its promoter replaced by the GPD promoter (TOP2oe)
# T1 sequence (P06786 1-1428): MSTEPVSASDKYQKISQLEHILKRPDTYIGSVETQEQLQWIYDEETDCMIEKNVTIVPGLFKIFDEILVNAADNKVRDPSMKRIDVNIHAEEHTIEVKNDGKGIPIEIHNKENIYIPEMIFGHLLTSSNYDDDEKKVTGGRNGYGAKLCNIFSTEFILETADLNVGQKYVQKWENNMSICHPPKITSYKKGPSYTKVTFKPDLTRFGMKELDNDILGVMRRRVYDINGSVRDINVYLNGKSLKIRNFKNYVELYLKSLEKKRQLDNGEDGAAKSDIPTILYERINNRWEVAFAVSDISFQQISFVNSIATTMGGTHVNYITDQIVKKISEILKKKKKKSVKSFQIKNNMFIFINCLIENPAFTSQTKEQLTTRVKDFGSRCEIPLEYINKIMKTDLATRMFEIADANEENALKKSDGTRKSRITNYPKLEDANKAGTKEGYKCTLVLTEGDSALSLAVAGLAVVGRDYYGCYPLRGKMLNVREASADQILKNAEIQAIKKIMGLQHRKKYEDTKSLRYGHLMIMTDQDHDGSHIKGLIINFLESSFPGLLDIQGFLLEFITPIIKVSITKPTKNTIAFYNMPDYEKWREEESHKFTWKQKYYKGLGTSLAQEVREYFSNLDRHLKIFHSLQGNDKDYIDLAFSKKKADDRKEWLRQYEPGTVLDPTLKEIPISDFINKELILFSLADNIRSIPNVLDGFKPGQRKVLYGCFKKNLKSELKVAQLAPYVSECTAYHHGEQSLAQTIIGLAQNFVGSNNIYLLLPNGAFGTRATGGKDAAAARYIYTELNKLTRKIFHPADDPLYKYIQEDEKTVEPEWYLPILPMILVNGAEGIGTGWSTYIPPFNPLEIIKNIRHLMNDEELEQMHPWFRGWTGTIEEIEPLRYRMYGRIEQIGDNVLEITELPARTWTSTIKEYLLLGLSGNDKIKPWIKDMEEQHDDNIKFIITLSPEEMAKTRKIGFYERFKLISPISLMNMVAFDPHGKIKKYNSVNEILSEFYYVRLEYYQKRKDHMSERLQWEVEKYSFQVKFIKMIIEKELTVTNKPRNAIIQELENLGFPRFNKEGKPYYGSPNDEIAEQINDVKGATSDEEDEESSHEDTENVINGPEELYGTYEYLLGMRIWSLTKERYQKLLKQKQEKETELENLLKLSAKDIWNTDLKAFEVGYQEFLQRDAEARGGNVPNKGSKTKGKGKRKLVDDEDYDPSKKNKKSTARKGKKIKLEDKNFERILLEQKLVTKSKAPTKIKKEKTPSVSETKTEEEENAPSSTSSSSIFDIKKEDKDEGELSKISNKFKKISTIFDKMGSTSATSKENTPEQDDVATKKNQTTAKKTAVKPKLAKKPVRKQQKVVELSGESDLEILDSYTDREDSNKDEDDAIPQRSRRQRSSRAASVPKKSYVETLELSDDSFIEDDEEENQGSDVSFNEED
# Assay: Yeast toxicity in strain overexpressing Topo II (TOP2oe)
# Assay type: cell-based
# Details: TOP2oe vs wild-type strain
# Excerpt: The strains are derived from the A364a genetic background, with the exception of BY4705, which is derived from the S288C background. Gene disruptions were generated by PCR fragment directed replacement (Baudin, et al., Nucleic Acids Research 21: 3329–30 (1993), Guldener, et al., Nucleic Acids Research 24: 2519–24 (1996)). Yeast overexpressing topoisomerase II was constructed by a PCR fragment directed promoter replacement of the topoisomerase II promoter with the yeast GPD promoter flanked upstream by the URA3 marker. All strains (except BY4705) bear the pleitropic drug sensitizing mutations erg6, pdr1, and pdr3 (Balzi, et al., Journal of Bioenergetics & Biomembranes 27: 71–6 (1995), Delaveau, et al, Molecular & General Genetics 244: 501–11 (1994), Gaber, et al., Molecular & Cellular Biology 9: 3447–56 (1989), Saunders, et al., Canadian Journal of Genetics & Cytology, 24: 493–503 (1982). Subik, et al, Current Genetics 10: 665–70 (1986)). The haploid yeast strain BY4705 (Brachmann, et al., Yeast 14: 115–32 (1998)) was used in the experiments described in FIG. 5. Plasmids expressing yeast or human topoisomerase I genes under the GAL promoter (Knab, et al., Journal of Biological Chemistry 268: 22322–30 (1993). Knab, et al., Journal of Biological Chemistry 270: 6141–8 (1995)) were transformed into BY4705 using standard procedures.
# Yeast toxicity assays were performed essentially as follows: Exponentially growing cultures of the appropriate strains were diluted in synthetic complete media to a concentration of 7.4×10^4 cells/mL, and aliquots (135 μL) were transferred to each well of clear flat-bottomed 96 well plates. Compounds were added in duplicate or triplicate as 15 μL of the appropriate dilution in 5% DMSO. A 15 μL portion of 5% DMSO was added to control wells. Assay plates were incubated at 30° C. for approximately seven generations growth in solvent control wells (as monitored by OD660, typically 21–24 hours), then the OD660 of the cultures was measured in a microplate reader (Bio-Tek). […]
row,SMILES,effect of overexpression of Topo II on toxicity
1,O=c1c(Cl)c(Cl)cnn1CCCl [compound IIa],Neither compound shows a large increase in toxicity
2,O=C(CCl)Nc1ccc(C(=O)N/N=C/c2ccc(Cl)cc2)cc1 [compound Ia],Neither compound shows a large increase in toxicity
3,"CC(=O)[C@]1(O)Cc2c(O)c3c(c(O)c2[C@@H](O[C@H]2C[C@H](N)[C@H](O)[C@H](C)O2)C1)C(=O)c1ccccc1C3=O [idarubicin, reference compound]",large increase
